Measurements reported in ChEMBL document CHEMBL1201862, “PubChem BioAssay data set” (2004).
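Five compound concentrations were applied to cells in 96-well plates for 48 hours; endpoints were derived by simple linear interpolation of the resulting dose-response curve. GI50 = concentration required for 50% inhibition of growth.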 The source made the active and inactive calls. No stated cut-off is given here; in the data, active = GI50 up to about 1.1 µM and inactive = higher.

Legend:
Assay in all cases: growth of human tumour cells (NCI), 48 h
[1] = test system: 786-0
[2] = test system: A549
[3] = test system: ACHN
[4] = test system: CCRF-CEM
[5] = test system: COLO 205
[6] = test system: DLD-1
[7] = test system: DMS-114
[8] = test system: DMS-273
[9] = test system: EKVX
[10] = test system: HCC 2998
[11] = test system: HCT-116
[12] = test system: HCT-15
[13] = test system: HL-60
[14] = test system: HOP-62
[15] = test system: IGROV-1
[16] = test system: K562
[17] = test system: KM-20L2
[18] = test system: KM12
[19] = test system: LOX IMVI
[20] = test system: LXFL 529
[21] = test system: M14
[22] = test system: M19-MEL
[23] = test system: MOLT-4
[24] = test system: Malme-3M
[25] = test system: NCI-H23
[26] = test system: NCI-H460
[27] = test system: NCI-H522
[28] = test system: OVCAR-3
[29] = test system: OVCAR-5
[30] = test system: OVCAR-8
[31] = test system: RPMI-8226
[32] = test system: RXF 393
[33] = test system: SF-268
[34] = test system: SF-295
[35] = test system: SF-539
[36] = test system: SK-MEL-28
[37] = test system: SK-MEL-2
[38] = test system: SK-MEL-5
[39] = test system: SK-OV-3
[40] = test system: SN12C
[41] = test system: SNB-19
[42] = test system: SNB-78
[43] = test system: SR
[44] = test system: SW-620
[45] = test system: TK-10
[46] = test system: U-251
[47] = test system: UACC-257
[48] = test system: UACC-62
[49] = test system: UO-31
[50] = test system: CAKI-1
[51] = test system: HOP-92
[52] = test system: HT-29
[53] = test system: NCI-H226
[54] = test system: OVCAR-4
[55] = test system: SNB-75

**Q.** What does the source list for `Nc1nc(N)c(N=O)c(Nc2ccc(I)cc2)n1`?
**A.** GI50 [1]: 25.5 µM (inactive); GI50 [2]: 65.8 µM (inactive); GI50 [3]: 24 µM (inactive); GI50 [4]: 13.8 µM (inactive); GI50 [5]: 18.6 µM (inactive); GI50 [6]: 10 µM (inactive); GI50 [7]: 20.7 µM (inactive); GI50 [8]: 16.5 µM (inactive); GI50 [9]: > 100 µM (inactive); GI50 [10]: 27.5 µM (inactive); GI50 [11]: 14.3 µM (inactive); GI50 [12]: 12.2 µM; GI50 [13]: 6.53 µM (inactive); GI50 [14]: 16.6 µM (inactive); GI50 [15]: 3.94 µM (inactive); GI50 [16]: 14.1 µM (inactive); GI50 [17]: 23.2 µM (inactive); GI50 [18]: 18.5 µM (inactive); GI50 [19]: 9.12 µM (inactive); GI50 [20]: 9.93 µM (inactive); GI50 [21]: 12.4 µM (inactive); GI50 [22]: 29.4 µM (inactive); GI50 [23]: 3.98 µM (inactive); GI50 [24]: 19.2 µM (inactive); GI50 [25]: 18.2 µM (inactive); GI50 [26]: 27.5 µM (inactive); GI50 [27]: 12.1 µM (inactive); GI50 [28]: 13.2 µM (inactive); GI50 [29]: 19.2 µM (inactive); GI50 [30]: 29.4 µM (inactive); GI50 [31]: 20.9 µM (inactive); GI50 [32]: 17.9 µM (inactive); GI50 [33]: 13.9 µM (inactive); GI50 [34]: 28.6 µM (inactive); GI50 [35]: 25.5 µM (inactive); GI50 [36]: 14 µM (inactive); GI50 [37]: 15.3 µM (inactive); GI50 [38]: 13.5 µM (inactive); GI50 [39]: 5.33 µM (inactive); GI50 [40]: 10.6 µM (inactive); GI50 [41]: 30.1 µM (inactive); GI50 [42]: 18.2 µM (inactive); GI50 [43]: 10.8 µM (inactive); GI50 [44]: 30 µM (inactive); GI50 [45]: 31 µM (inactive); GI50 [46]: 25.3 µM (inactive); GI50 [47]: 19.5 µM (inactive); GI50 [48]: 7.78 µM (inactive); GI50 [49]: 18 µM (inactive)

**Q.** With `O=C(CC1C(=O)Nc2ccccc2[S+]1[O-])Nc1ccc(Cl)cc1` (configuration not stated) as the compound, how does the GI50 [1] read?
**A.** 39 µM (inactive)

**Q.** What about the GI50 [2] of the same compound?
**A.** > 100 µM (inactive)

**Q.** What about the GI50 [3] of the same compound?
**A.** 79.3 µM (inactive)

**Q.** What about the GI50 [50] of the same compound?
**A.** > 100 µM (inactive)

**Q.** And the GI50 [5]?
**A.** > 100 µM (inactive)

**Q.** And the GI50 [6]?
**A.** > 100 µM (inactive)

**Q.** What about the GI50 [8] of the same compound?
**A.** > 100 µM (inactive)

**Q.** What about the GI50 [10] of the same compound?
**A.** 79.6 µM (inactive)

**Q.** And the GI50 [12]?
**A.** > 100 µM

**Q.** What about the GI50 [13] of the same compound?
**A.** 46.9 µM (inactive)

**Q.** And the GI50 [14]?
**A.** 33.7 µM (inactive)

**Q.** And the GI50 [51]?
**A.** 29 µM (inactive)

**Q.** What about the GI50 [52] of the same compound?
**A.** > 100 µM (inactive)

**Q.** What about the GI50 [15] of the same compound?
**A.** 41.3 µM (inactive)

**Q.** What about the GI50 [16] of the same compound?
**A.** > 100 µM (inactive)

**Q.** What about the GI50 [17] of the same compound?
**A.** > 100 µM (inactive)

**Q.** What about the GI50 [18] of the same compound?
**A.** > 100 µM (inactive)

**Q.** And the GI50 [19]?
**A.** > 100 µM (inactive)

**Q.** What about the GI50 [20] of the same compound?
**A.** 91.8 µM (inactive)

**Q.** What about the GI50 [21] of the same compound?
**A.** > 100 µM (inactive)

**Q.** And the GI50 [23]?
**A.** 50.2 µM (inactive)

**Q.** And the GI50 [24]?
**A.** 98.2 µM (inactive)

**Q.** And the GI50 [53]?
**A.** > 100 µM (inactive)

**Q.** And the GI50 [25]?
**A.** 35.2 µM (inactive)

**Q.** What about the GI50 [26] of the same compound?
**A.** > 100 µM (inactive)

**Q.** And the GI50 [27]?
**A.** > 100 µM (inactive)

**Q.** What about the GI50 [28] of the same compound?
**A.** > 100 µM (inactive)

**Q.** And the GI50 [54]?
**A.** 49 µM (inactive)

**Q.** And the GI50 [29]?
**A.** > 100 µM (inactive)

**Q.** And the GI50 [30]?
**A.** 32.7 µM (inactive)

**Q.** And the GI50 [31]?
**A.** > 100 µM (inactive)

**Q.** And the GI50 [33]?
**A.** 57.5 µM (inactive)

**Q.** And the GI50 [34]?
**A.** > 100 µM (inactive)

**Q.** And the GI50 [35]?
**A.** 23.7 µM (inactive)

**Q.** And the GI50 [36]?
**A.** > 100 µM (inactive)

**Q.** What about the GI50 [37] of the same compound?
**A.** > 100 µM (inactive)

**Q.** What about the GI50 [39] of the same compound?
**A.** 30.1 µM (inactive)

**Q.** And the GI50 [40]?
**A.** 72.4 µM (inactive)

**Q.** And the GI50 [41]?
**A.** 93.3 µM (inactive)

**Q.** What about the GI50 [55] of the same compound?
**A.** 29.4 µM (inactive)

**Q.** What about the GI50 [42] of the same compound?
**A.** 53.7 µM (inactive)

**Q.** And the GI50 [43]?
**A.** 32.4 µM (inactive)

**Q.** And the GI50 [44]?
**A.** > 100 µM (inactive)

**Q.** And the GI50 [45]?
**A.** > 100 µM (inactive)

**Q.** And the GI50 [46]?
**A.** 35.7 µM (inactive)

**Q.** What about the GI50 [47] of the same compound?
**A.** 69.5 µM (inactive)

**Q.** And the GI50 [48]?
**A.** 37 µM (inactive)

**Q.** What about the GI50 [49] of the same compound?
**A.** 35.1 µM (inactive)
